In ChEMBL document CHEMBL4837239, “Identification of Thieno[3,2-d]pyrimidine Derivatives as Dual Inhibitors of Focal Adhesion Kinase and FMS-like Tyrosine Kinase 3” (J Med Chem, 2021):
Activity calls are given as the source filed them. The calls are words filed in the database; no cut-off is given here.

Legend:
[1] = target: CYP2C9 (Homo sapiens, UniProt P11712); assay: Inhibition of CYP2C9 (unknown origin) at 10 uM relative to control; format: ADME
[2] = target: CYP2C19 (Homo sapiens, UniProt P33261); assay: Inhibition of CYP2C19 (unknown origin) at 10 uM relative to control; format: ADME
[3] = Oral bioavailability in rat at 5 mg/kg; format: ADME, organism-based; settings: in vivo
[4] = target: Tyrosine-protein kinase JAK3 (Homo sapiens, UniProt P52333); assay: Inhibition of JAK3 (unknown origin)
Tyrosine-protein kinase JAK3, sequence (P52333 whole entry): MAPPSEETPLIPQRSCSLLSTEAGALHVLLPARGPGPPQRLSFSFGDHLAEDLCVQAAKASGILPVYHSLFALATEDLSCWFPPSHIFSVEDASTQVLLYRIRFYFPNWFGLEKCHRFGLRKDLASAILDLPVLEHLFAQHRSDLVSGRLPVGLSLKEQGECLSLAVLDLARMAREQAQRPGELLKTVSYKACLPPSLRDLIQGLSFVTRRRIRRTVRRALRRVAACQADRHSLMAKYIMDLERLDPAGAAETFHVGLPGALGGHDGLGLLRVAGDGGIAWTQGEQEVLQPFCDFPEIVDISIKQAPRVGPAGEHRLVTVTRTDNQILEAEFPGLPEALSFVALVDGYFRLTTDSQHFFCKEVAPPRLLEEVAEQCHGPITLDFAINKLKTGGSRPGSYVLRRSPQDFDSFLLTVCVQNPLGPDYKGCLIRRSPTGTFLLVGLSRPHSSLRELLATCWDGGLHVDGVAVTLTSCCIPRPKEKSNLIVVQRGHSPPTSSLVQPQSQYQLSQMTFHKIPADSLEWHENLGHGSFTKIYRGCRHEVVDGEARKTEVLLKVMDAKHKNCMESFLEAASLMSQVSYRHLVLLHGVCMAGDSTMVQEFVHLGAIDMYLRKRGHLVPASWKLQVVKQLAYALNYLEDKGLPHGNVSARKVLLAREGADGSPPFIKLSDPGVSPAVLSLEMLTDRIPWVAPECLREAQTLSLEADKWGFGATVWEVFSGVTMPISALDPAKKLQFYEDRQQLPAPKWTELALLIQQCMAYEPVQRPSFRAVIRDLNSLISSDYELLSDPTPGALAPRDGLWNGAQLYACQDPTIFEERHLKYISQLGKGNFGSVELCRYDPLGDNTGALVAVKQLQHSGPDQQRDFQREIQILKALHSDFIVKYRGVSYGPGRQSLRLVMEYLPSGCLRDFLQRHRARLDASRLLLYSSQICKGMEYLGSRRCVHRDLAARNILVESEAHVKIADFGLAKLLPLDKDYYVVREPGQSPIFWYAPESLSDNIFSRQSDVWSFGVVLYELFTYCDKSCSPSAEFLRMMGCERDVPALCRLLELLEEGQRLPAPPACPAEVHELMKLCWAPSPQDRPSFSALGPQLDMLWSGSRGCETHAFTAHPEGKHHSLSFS

[5] = target: T1, Focal adhesion kinase 1 (Homo sapiens, UniProt Q05397); assay: Inhibition of FAK (unknown origin)
[6] = target: Tyrosine-protein kinase JAK1 (Homo sapiens, UniProt P23458); assay: Inhibition of JAK1 (unknown origin)
[7] = target: Cyclin-dependent kinase 4 (Homo sapiens, UniProt P11802); assay: Inhibition of CDK4 (unknown origin)
[8] = target: Tyrosine-protein kinase Lck (Homo sapiens, UniProt P06239); assay: Inhibition of Lck (unknown origin) at 0.1 uM
[9] = target: Proto-oncogene tyrosine-protein kinase ROS (Homo sapiens, UniProt P08922); assay: Inhibition of ROS (unknown origin) at 0.1 uM
Proto-oncogene tyrosine-protein kinase ROS, sequence (P08922 whole entry): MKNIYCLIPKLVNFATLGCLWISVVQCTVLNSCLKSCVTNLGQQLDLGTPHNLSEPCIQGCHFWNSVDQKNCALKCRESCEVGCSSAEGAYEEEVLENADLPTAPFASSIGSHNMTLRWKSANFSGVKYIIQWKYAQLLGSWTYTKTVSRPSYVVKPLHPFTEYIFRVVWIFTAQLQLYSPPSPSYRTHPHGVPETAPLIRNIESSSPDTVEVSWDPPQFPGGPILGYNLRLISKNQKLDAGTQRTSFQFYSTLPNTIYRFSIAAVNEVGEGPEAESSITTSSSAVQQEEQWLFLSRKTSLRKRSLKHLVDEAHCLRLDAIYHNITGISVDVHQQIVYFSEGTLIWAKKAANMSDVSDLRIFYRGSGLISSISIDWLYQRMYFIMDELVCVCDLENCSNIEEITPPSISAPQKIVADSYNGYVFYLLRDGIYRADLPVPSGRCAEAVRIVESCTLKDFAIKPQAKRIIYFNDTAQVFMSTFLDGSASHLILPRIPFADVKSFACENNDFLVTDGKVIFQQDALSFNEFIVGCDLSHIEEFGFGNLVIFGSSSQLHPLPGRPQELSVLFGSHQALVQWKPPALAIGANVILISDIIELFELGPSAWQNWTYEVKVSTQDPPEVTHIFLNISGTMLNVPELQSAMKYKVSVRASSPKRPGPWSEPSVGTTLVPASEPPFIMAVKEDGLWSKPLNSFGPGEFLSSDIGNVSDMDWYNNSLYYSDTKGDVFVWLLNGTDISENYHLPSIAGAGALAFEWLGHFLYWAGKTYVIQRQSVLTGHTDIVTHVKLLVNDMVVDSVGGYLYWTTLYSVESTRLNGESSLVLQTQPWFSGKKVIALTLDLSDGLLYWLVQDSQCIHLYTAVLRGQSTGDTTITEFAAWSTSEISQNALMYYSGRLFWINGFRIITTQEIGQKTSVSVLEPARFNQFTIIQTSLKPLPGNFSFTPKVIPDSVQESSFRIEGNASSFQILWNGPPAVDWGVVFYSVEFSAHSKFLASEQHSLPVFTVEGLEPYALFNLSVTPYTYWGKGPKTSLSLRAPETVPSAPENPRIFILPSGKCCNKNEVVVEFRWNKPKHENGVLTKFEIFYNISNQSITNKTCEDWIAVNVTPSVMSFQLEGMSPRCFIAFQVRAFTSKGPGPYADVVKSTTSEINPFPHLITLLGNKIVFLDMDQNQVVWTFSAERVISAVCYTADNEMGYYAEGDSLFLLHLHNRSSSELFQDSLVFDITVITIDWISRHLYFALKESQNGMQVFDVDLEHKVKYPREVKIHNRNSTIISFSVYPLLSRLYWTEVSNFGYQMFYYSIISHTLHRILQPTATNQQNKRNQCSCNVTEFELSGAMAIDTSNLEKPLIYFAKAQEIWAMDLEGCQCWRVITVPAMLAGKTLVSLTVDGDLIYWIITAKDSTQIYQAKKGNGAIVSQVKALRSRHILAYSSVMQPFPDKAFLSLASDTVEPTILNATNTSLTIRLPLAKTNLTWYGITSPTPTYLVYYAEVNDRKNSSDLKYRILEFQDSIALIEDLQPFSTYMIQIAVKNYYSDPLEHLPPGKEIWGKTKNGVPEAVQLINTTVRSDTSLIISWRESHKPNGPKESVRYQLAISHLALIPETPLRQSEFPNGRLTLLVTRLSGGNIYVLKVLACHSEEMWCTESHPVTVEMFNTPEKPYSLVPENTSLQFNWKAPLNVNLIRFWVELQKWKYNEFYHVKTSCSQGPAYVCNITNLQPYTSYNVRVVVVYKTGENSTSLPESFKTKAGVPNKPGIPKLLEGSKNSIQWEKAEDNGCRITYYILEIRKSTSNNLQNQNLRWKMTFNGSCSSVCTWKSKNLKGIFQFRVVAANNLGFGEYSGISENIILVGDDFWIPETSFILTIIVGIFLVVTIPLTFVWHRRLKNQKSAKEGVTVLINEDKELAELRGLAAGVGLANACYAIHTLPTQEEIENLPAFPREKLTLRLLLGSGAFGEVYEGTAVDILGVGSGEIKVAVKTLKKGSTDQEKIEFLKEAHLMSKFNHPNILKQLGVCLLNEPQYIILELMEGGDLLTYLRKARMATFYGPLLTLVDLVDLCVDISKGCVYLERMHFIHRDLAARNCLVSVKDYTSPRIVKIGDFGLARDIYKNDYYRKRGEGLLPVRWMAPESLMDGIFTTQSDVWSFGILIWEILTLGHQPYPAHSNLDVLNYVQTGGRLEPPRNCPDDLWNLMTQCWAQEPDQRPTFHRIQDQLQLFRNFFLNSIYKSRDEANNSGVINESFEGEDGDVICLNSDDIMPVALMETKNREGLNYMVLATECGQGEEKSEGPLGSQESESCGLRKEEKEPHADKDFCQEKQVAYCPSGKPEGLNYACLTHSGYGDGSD

[10] = test system: NCI-H23; assay: Antiproliferative activity against human NCI-H23 cells assessed as growth inhibition measured after 72 hrs by MTT assay; format: functional, cell-based
[11] = test system: BaF3; assay: Antiproliferative activity against mouse Ba/F3 cells harbouring FLT3 ITD D835Y mutant assessed as growth inhibition measured after 72 hrs by CellTiter-Glo assay; format: functional; settings: Mus musculus, BaF3
[12] = test system: BaF3; assay: Antiproliferative activity against mouse Ba/F3 cells harbouring FLT3 ITD F691L mutant assessed as growth inhibition measured after 72 hrs by CellTiter-Glo assay; format: functional; settings: Mus musculus, BaF3
[13] = target: T1, Focal adhesion kinase 1; assay: Inhibition of FAK autophosphorylation at Y576 in human HCT-116 cells at 5 uM incubated for 24 hrs by Western blot analysis; format: cell-based
Target sequence in this assay (Q05397 2-1052 limits assumed): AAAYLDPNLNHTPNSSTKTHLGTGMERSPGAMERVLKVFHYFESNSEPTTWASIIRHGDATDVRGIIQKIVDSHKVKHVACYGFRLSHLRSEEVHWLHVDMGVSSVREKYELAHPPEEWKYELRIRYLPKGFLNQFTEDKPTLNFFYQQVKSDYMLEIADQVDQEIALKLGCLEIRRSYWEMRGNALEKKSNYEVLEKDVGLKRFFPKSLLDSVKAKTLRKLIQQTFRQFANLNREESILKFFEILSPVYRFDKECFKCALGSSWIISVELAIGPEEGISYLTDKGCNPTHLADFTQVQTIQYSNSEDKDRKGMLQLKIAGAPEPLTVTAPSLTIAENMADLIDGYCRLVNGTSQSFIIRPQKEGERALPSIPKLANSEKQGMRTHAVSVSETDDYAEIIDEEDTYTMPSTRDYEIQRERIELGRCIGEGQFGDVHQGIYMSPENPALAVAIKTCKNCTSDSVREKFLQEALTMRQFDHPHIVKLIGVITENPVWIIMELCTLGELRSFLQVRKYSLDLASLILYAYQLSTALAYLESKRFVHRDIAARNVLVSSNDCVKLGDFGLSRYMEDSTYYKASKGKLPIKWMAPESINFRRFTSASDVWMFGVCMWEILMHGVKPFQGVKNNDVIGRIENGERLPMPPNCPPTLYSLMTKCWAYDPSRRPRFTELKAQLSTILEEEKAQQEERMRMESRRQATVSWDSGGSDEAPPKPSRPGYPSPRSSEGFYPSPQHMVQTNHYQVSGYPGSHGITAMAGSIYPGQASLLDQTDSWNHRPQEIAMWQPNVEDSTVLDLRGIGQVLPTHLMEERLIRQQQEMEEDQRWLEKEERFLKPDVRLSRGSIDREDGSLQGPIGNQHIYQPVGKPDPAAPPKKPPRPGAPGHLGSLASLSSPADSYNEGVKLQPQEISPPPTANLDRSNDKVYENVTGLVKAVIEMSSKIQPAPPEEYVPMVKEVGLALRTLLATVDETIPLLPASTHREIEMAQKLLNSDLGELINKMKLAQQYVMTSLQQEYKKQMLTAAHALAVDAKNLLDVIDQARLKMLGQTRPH

[14] = target: T1, Focal adhesion kinase 1; assay: Inhibition of FAK autophosphorylation at Y576 in human MDA-MB-231 cells at 5 uM incubated for 24 hrs by Western blot analysis; format: cell-based
Target sequence in this assay (Q05397 2-1052 limits assumed): as above

[15] = test system: MDA-MB-231; assay: Induction of apoptosis in human MDA-MB-231 cells assessed apoptotic cell death at 10 uM incubated for 24 hrs by Annexin-V/PI analysis; format: functional, cell-based
[16] = test system: HCT-116; assay: Growth inhibition of anchorage-Independent human HCT-116 cells assessed as decrease in size incubated for 72 hrs by MTT assay; format: functional, cell-based; settings: dose 1-10 µM
[17] = test system: HCT-116; assay: Growth inhibition of anchorage-Independent human HCT-116 cells assessed as decrease in number of colonies at 1 uM incubated for 72 hrs by MTT assay relative to control; format: functional, cell-based
[18] = test system: MDA-MB-231; assay: In vivo antitumor activity against human MDA-MB-231 cells xenografted in Balb/c mouse assessed as tumor volume at 70 mg/kg, po once daily measured for 16 days (reference value: 600 mm^3); format: functional; settings: time 16 day
[19] = test system: MDA-MB-231; assay: In vivo antitumor activity against human MDA-MB-231 cells xenografted in Balb/c mouse assessed as reduction in tumor mass at 40 to 70 mg/kg, po once daily measured for 16 days; format: functional, organism-based; settings: dose 40-70 mg/kg, time 16.0 day
[20] = test system: MDA-MB-231; assay: In vivo antitumor activity against human MDA-MB-231 cells xenografted in Balb/c mouse assessed as reduction in tumor weight at 40 to 70 mg/kg, po once daily measured for 16 days; format: functional, organism-based; settings: dose 40-70 mg/kg, time 16.0 day
[21] = test system: MDA-MB-231; assay: Antitumor activity against human MDA-MB-231 cells xenografted in Balb/c mouse assessed as decrease in ki67 at 40 to 70 mg/kg, po once daily measured for 16 days by Immunohistochemical analysis; format: functional, organism-based; settings: dose 40-70 mg/kg, time 16.0 day
[22] = test system: MDA-MB-231; assay: Disruption of focal adhesion of human MDA-MB-231 cells assessed as decrease in vinculin measured after 3 hrs by Alexa Fluor 488-conjugated Ab based fluorescence analysis; format: functional, cell-based; settings: dose 1-10 µM
[23] = test system: MDA-MB-231; assay: Antimetastatic activity against human MDA-MB-231 cells expressing firefly luciferase xenografted NSG orthotopic mouse model assessed as reduction in luminescence intensity at axillary lymph node at 70 mg/kg, po once daily measured for 2 weeks; format: functional, organism-based
[24] = test system: MDA-MB-231; assay: Antimetastatic activity against human MDA-MB-231 cells expressing firefly luciferase xenografted NSG orthotopic mouse model assessed as reduction in luminescence intensity at lung at 70 mg/kg, po once daily measured for 2 weeks; format: functional, organism-based
[25] = test system: MDA-MB-231; assay: Antimetastatic activity against human MDA-MB-231 cells expressing firefly luciferase xenografted NSG orthotopic mouse model assessed as suppression of lymphogenous metastasis at 70 mg/kg, po once daily measured for 2 weeks; format: functional, organism-based
[26] = test system: MDA-MB-231; assay: Antimetastatic activity against human MDA-MB-231 cells expressing firefly luciferase xenografted NSG orthotopic mouse model assessed as reduction in luminescence intensity at liver at 70 mg/kg, po once daily measured for 2 weeks; format: functional, organism-based
[27] = Toxicity in mouse xenografted with human MV4-11 cells assessed as change in body weight at 20 to 50 mg/kg, po; format: organism-based; settings: in vivo, dose 20-50 mg/kg

CYP2C9, sequence (P11712 whole entry): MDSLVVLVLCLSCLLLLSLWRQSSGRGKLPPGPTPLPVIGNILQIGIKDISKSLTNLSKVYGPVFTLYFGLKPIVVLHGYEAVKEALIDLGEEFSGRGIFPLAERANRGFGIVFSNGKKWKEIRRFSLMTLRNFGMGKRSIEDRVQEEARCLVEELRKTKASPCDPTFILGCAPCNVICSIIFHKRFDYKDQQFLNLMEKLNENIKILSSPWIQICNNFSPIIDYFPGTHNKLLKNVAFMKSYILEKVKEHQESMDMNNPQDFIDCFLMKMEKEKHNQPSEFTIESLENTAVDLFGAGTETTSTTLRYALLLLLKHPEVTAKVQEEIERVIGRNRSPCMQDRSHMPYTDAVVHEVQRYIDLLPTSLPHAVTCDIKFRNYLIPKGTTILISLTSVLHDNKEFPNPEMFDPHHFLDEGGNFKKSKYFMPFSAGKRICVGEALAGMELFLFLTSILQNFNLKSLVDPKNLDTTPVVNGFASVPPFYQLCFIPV

inhibition at 10 µM [1]: 93.6% | inhibition at 10 µM [2]: 90.6% | bioavailability [3]: 37.1% | IC50 [4]: 3.2 nM | IC50 [5]: 9.7 nM | IC50 [6]: 1.8 nM | IC50 [7]: 8.5 nM | inhibition [8]: 93.9% | inhibition [9]: 92.9% | GI50 [11]: 5.7 nM | GI50 [12]: 60.5 nM | inhibition [13]: Active | inhibition [14]: Active
Compound: CCN1CCN(c2ccc(Nc3ncc4scc(-c5cccc(NS(C)(=O)=O)c5)c4n3)cc2)CC1
Activity [10]: Active | Activity [15]: Active | growth inhibition (GI) [16]: Active | growth inhibition (GI) [17]: Active | Activity [18]: 300 mm3 | Activity [19]: Active | Activity [20]: Active | Activity [21]: Active | Activity [22]: Active | Activity [23]: Active | Activity [24]: Active | Activity [25]: Active | Activity [26]: Active | Activity [27]: Non-Toxic
